Data published in patent US20180325157A1, “A DIETARY SUPPLEMENT COMPRISING BETA-GLUCAN AND CASEIN HYDROLSATE FOR IMPROVING HEALTH AND GROWTH PERFORMANCE IN A MAMMAL” (University College Dublin, National University of Ireland, …, priority 2015, published 2018).
Where “and” joins values, the source holds several entries; their conditions need not be identical. Identical values can stand only once.

Key:
[1] = tested on: weaning piglet; settings: previous experiments, cited from earlier work
[2] = tested on: IL-1α; test: Cytokine gene expression in colonic tissue (qPCR): IL-1α; assay type: in vivo, porcine; settings: day 12, normalised relative quantity
Protocol: (§1) Tissue samples were collected from the mesenteric side of the colon, rinsed with ice-cold sterile phosphate-buffered saline (Oxoid, Basingstoke, UK) and stripped of overlying smooth muscle. The samples were then cut into small pieces using a sterile scalpel blade and stored in 15 ml of RNAlater™ (Applied biosystems, Foster city, CA, USA) overnight followed by storage at −20° C. prior to RNA extraction. Total RNA was extracted from the colonic tissue samples using a GenElute Mammalian Total RNA Miniprep Kit (Sigma-Aldrich Corporation, St Louis, Mo., USA) according to the manufacturer's instructions. […] The total RNA was quantified and assessed for purity using the NanoDrop-ND1000 Spectrophotometer (Thermo Fisher Scientific Inc. MA, USA). The quality of the total RNA was determined by visualizing on an ethidium bromide stained 1% agarose gel. […]
(§2) qPCR was carried out to quantify the following two sets of targets: the first set of target are a selected panel of cytokine genes; Interleukins (IL-1a, IL-1β, IL-4, IL-6, IL-8, IL-10, IL-17A, IL-21), Interferon (IFN-γ), Tumor Necrosis Factor (TNFα), Transforming growth factor (TGF-β) and Forkhead box P3 (FOXP3). […]
(§3) Mean Ct values were converted to relative quantities using the formula, Relative quantity=(PCR efficiency) ΔCt, where ΔCt is the change in the Ct values of the sample relative to the highest expression (minimum Ct value). […]

[3] = tested on: selected panel of bacterial groups; test: qPCR of the other selected bacterial groups in colonic digesta; assay type: in vivo, pig; settings: day 12
Protocol: (§4) At day 12, all the pigs were sacrificed following a lethal injection of Euthatal (pentobarbitone sodium BP-Merial Animal Ltd, Sandringham House, Essex, UK) at a rate of […] live body weight. In sterile conditions, the digestive tract was removed and tissue samples from colon were placed in sterile phosphate buffer saline (PBS) (Oxoid, Basingstoke, UK). The digesta samples were recovered aseptically from caecum and colon and transported on ice to proper storage conditions.
(§5) To evaluate the effect of feed additives on the microbiota, samples of digesta contents (approximately 10 g) were recovered from the caecum and colon of each animal in sterile conditions immediately after slaughter. […] Quantity and quality of DNA were assessed using a Nanodrop (Nanodrop, ND1000; Thermo Scientific, Wilmington, Del.).
(§6) A combined aliquot of bacterial genomic DNA from all animals were used for preparation of standard curves. […] Thermal cycling conditions used were similar to the condition described below for quantitative real-time PCR. Standard curves were subsequently generated by quantitative real-time PCR of serial dilutions of these amplicons using the same genus and species-specific primers to permit absolute quantification based on gene copy number (Lee et al., 2006). […] The dry matter (DM) of the digesta was determined after drying overnight at 103° C. […]

[4] = tested on: TGF-β; test: Cytokine gene expression in colonic tissue (qPCR): TGF-β; assay type: in vivo, porcine; settings: day 12, normalised relative quantity
Protocol: as §1, §2, §3

[5] = tested on: weaning piglets; test: Body weight and growth performance of weaned piglets over 12 days; assay type: in vivo, pig
Text: This study was designed in a completely randomized block design with 5 dietary groups. The dietary groups are as follows: 1) control diet, 2) control diet+ZnO, 3) control diet+casein hydrolysate, 4) control diet+(3 glucan and 5) control diet+casein hydrolysate+β glucan. The control diet used in this study was based on previous work by Walsh et al. (2013). The levels of casein hydrolysate used were based on previous experiment and the levels of β glucan, derived from yeast (S. cerevisiae), used were based on a previous study by Sweeney et al. (2012). Diets were formulated to contain similar concentrations of digestible energy (DE) (14.5 MJ/kg) and standardized ileal digestible (SID) lysine (12.5 g/kg) contents. All amino acids requirements were met relative to SID lysine (NRC, 1998). All diets were milled on site and fed in meal form for 12 days after weaning.
Forty weaned piglets [progeny of Landrace boars×(Large White×Landrace sow)] were weighed and blocked on the basis of initial live body weight (7.3±0.2 kg) and assigned to 1 of the 5 dietary treatment groups (n=8). Piglets were weighted individually at the beginning of the experiment (day 0=day of weaning), day 6 and day 12. The piglets were housed in groups of two on fully slatted floors (1.68×1.22 m). The ambient environmental temperature within the house was thermostatically controlled at 30° C. The feed was available ad libitum and water was available via nipple drinkers. Feed was available up to the final weighing and all remaining feed was weighed back for the purpose of calculating feed efficiency.
The current study was a complete randomised design experiment and data analysed using the general linear model procedure of the Statistical Analysis Institute (SAS, 2004). The individual pen represented the experimental unit for the performance analysis. All the data were checked initially for normality using the PROC univariate procedure in SAS (2004). The microbial counts were log transformed before statistical analysis. Probability values of less than 0.05 were used as the criterion for statistical significance. Intercorrelations between cytokines and cytokine regulatory genes was analysed in a correlation matrix using PASW 18 (SPSS for Windows, […]; SPSS, Chicago, Ill.) and the Pearson's r value greater than 0.400 was considered to be positively correlated. All results are presented in the tables as least square means±standard error of the means (SEM).

[6] = tested on: Bacteroidetes; test: qPCR of bacterial groups in digesta: Bacteroidetes; assay type: in vivo, pig; settings: caecal digesta, day 12
Protocol: as §4, §5, §6

[7] = tested on: Bifidobacteria spp.; test: qPCR of bacterial groups in digesta: Bifidobacteria; assay type: in vivo, pig; settings: day 12
Protocol: as §4, §5, §6

[8] = tested on: IL-1β; test: Cytokine gene expression in colonic tissue (qPCR): IL-1β; assay type: in vivo, porcine; settings: day 12, normalised relative quantity
Protocol: as §1, §2, §3

[9] = tested on: IL-8; test: Cytokine gene expression in colonic tissue (qPCR): IL-8; assay type: in vivo, porcine; settings: day 12, normalised relative quantity
Protocol: as §1, §2, §3

[10] = tested on: IL-17; test: Cytokine gene expression in colonic tissue (qPCR): IL-17; assay type: in vivo, porcine; settings: day 12, normalised relative quantity
Protocol: as §1, §2, §3

[O]=[Zn] [ZnO, zinc oxide]
anti-inflammatory activity in the weaning piglet gut ([1]; weaning piglet gut): anti-inflammatory activity | overall growth performance parameters ([1]; weaning piglet): improved | IL-1α expression [2]: 0.006 RQ | bacterial copy numbers of any other bacterial group [3]: No change | TGF-β expression [4]: 0.183 RQ | Gain to feed (Day 0-12) ([5]; Day 0-12): 0.26 kg/kg | OADG (overall average daily gain) (Day 0-12) ([5]; Day 0-12): 0.10 kg/day | OFI (overall feed intake) (Day 0-12) ([5]; Day 0-12): 0.37 kg/day | Weight (kg) Weight 0-6 ([5]; Weight 0-6): 7.53 kg | Weight (kg) Weight 6-12 ([5]; Weight 6-12 (end of experiment)): 8.64 kg and 8.64^a kg | abundance of Bacteroidetes copy numbers [6]: 12.60 log10 bacteria/g DM digesta | Bifidobacteria spp. numbers ([7]; caecal digesta): 8.94 log10 bacteria/g DM digesta | abundance of Bifidobacteria copy numbers ([7]; colonic digesta): 8.96 log10 bacteria/g DM digesta | IL-1β expression [8]: 0.010 RQ | IL-8 expression [9]: 0.003 RQ | IL-17 expression [10]: 0.061 RQ
